# Data: patent US20260138976A1 (Hoffmann-La Roche Inc., priority 2022, published 2026)
# Experiments:
# [1] = target: T1, DGKα (hDGKalpha(1-735)-N-His) (Homo sapiens, UniProt P23743); test: In vitro DGK inhibition assay, DGKalpha ADP Glo (in house); type: biochemical; conditions: 4 nM DGKα, 25 μM ATP, 125 uM DLG in liposomes, 1 hour reaction
# T1 construct: hDGKalpha(1-735)-N-His; His (N); made in house; host or cells: Sf21 insect cells (baculovirus)
# Procedure, shortened: (§1)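 Full-length His-tagged human DGKα (4 nM) or DGKζ (2 nM), expressed in Sf21 cells, phosphorylated 125 µM DLG in PS/PC liposomes with ATP at 25 µM (α) or 50 µM (ζ) for 1 h. ADP was measured by ADP-Glo luminescence. Compounds were tested as 11-point 1:3 series in 2% DMSO.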
# primary human T-cells = test: Proliferation assay (5 days, CellTiter-Glo, CD3-stimulated T-cells); type: cell-based; conditions: for Emax proliferation (% activation): CD3 condition, normalised to DMSO (neutral) and 20 μM reference compound A1 = 100%; for EC50: Homo sapiens, T-cell, 120 h, CD3-stimulated primary human T-cells, 5 days, CellTiter-Glo, fitted sigmoidal curve, read-out: Tcell Proliferation CD3 EC50
# Procedure, shortened: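 Expanded primary human T-cells, 100 k cells/well, were stimulated with plate-coated CD3 antibody (donor-titrated) and given compound in a 5 or 6 pt dose response from 20 μM or 10 μM final top, 0.2% DMSO final. ATP was read by CellTiter-Glo after 5 days. EC50 and Emax were reported as % of 20 μM reference compound A1.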
# [2] = target: T2, DGKζ (hDGKzeta(1-928)-N-His) (Homo sapiens, UniProt Q13574); test: In vitro DGK inhibition assay, DGKzeta ADP Glo (in house); type: biochemical; conditions: 2 nM DGKζ, 50 μM ATP, 125 uM DLG in liposomes, 1 hour reaction
# T2 construct: hDGKzeta(1-928)-N-His; His (N); made in house; host or cells: Sf21 insect cells (baculovirus)
# T2 sequence (Q13574 whole entry): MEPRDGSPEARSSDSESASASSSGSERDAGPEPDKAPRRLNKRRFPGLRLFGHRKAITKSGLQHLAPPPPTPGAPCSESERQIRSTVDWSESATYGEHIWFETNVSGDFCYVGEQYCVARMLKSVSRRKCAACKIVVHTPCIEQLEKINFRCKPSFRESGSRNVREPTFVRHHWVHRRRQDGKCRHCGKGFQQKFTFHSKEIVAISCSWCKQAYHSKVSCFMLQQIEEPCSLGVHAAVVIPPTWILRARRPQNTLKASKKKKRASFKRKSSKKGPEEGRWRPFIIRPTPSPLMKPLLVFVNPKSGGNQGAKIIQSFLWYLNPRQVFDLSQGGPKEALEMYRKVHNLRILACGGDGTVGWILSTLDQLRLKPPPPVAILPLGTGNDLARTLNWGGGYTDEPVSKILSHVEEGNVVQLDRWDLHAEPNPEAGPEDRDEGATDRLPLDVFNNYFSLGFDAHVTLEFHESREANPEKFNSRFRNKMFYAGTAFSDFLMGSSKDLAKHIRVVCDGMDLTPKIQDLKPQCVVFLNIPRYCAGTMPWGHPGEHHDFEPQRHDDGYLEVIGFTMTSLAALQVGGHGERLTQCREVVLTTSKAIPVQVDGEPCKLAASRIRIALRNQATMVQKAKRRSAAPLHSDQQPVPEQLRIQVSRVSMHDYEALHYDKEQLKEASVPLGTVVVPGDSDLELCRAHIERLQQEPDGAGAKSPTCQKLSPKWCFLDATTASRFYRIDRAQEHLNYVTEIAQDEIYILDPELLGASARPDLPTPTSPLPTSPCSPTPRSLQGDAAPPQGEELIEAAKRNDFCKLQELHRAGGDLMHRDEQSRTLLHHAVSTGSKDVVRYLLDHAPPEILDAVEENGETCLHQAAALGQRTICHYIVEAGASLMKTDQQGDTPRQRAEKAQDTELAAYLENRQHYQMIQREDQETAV
# Procedure, shortened: as §1
# T1 sequence (P23743 whole entry): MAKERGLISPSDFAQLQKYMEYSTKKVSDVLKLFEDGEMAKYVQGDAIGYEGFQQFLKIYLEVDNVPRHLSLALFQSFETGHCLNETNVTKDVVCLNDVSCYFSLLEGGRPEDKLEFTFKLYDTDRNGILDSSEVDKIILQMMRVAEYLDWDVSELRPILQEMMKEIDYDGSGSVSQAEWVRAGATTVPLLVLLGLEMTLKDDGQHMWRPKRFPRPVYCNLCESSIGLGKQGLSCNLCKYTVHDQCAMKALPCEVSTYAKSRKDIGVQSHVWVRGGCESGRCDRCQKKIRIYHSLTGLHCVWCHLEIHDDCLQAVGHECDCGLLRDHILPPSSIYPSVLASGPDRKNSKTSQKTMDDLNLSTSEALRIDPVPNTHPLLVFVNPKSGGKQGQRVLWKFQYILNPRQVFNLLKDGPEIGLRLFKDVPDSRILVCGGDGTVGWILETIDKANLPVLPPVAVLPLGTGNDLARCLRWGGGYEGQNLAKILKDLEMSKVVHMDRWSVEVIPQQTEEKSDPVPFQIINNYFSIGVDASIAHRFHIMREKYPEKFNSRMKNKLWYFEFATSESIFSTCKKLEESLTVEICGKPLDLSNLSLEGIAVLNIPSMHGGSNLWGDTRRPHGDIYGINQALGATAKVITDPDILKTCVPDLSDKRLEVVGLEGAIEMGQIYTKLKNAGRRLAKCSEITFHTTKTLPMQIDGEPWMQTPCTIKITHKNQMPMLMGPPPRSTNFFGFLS
Compound,IC50 [1] [nM],IC50 [2] [nM],Emax proliferation (% activation) (primary human T-cells),EC50 (primary human T-cells) [nM]
"CC(C)(C#N)c1nnc(-c2ccc3c(c2)N(Cc2ccc(-c4ccc(OC(F)F)cn4)cc2)C(=O)[C@@H](N)CS3(=O)=O)o1 [Example 108, 2-[5-[(3R)-3-amino-5-[[4-[5-(difluoromethoxy)-2-pyridyl]phenyl]methyl]-1,1,4-trioxo-2,3-dihydro-1λ^6,5-benzothiazepin-7-yl]-1,3,4-oxadiazol-2-yl]-2-methyl-propanenitrile]",1390,939,204,820
"CC(F)(F)c1ccc(-c2ccc(CN3C(=O)[C@@H](N)CS(=O)(=O)c4ccc(-c5nnc(C(C)(C)C#N)o5)cc43)cc2)nc1 [Example 109, 2-[5-[(3R)-3-amino-5-[[4-[5-(1,1-difluoroethyl)-2-pyridyl]phenyl]methyl]-1,1,4-trioxo-2,3-dihydro-1λ^6,5-benzothiazepin-7-yl]-1,3,4-oxadiazol-2-yl]-2-methyl-propanenitrile]",2110,864,129,445
"CC(C)(C#N)c1nnc(-c2ccc3c(c2)N(Cc2ccc(-c4cc(OC(F)F)ccn4)cc2)C(=O)[C@@H](N)CS3(=O)=O)o1 [Example 110, 2-[5-[(3R)-3-amino-5-[[4-[4-(difluoromethoxy)-2-pyridyl]phenyl]methyl]-1,1,4-trioxo-2,3-dihydro-1λ^6,5-benzothiazepin-7-yl]-1,3,4-oxadiazol-2-yl]-2-methyl-propanenitrile]",> 60000,507,85,5780
"CC(C)(C#N)c1nnc(-c2ccc3c(c2)N(Cc2ccc(-c4ccnc(C(F)(F)F)c4)cc2)C(=O)[C@@H](N)CS3(=O)=O)o1 [Example 111, 2-[5-[(3R)-3-amino-1,1,4-trioxo-5-[[4-[2-(trifluoromethyl)-4-pyridyl]phenyl]methyl]-2,3-dihydro-1λ^6,5-benzothiazepin-7-yl]-1,3,4-oxadiazol-2-yl]-2-methyl-propanenitrile]",> 62500,1130,117,926
CC(C)(C#N)c1nnc(-c2ccc3c(c2)N(Cc2ccc(-c4cnc(OC(F)(F)F)cn4)cc2)C(=O)[C@@H](N)CS3(=O)=O)o1 [Example 112],1750,473,116,292
"CC(C)(C#N)c1nnc(-c2ccc3c(c2)N(Cc2ccc(-c4ccc(C(F)(F)F)nc4)cc2)C(=O)[C@@H](N)CS3(=O)=O)o1 [Example 113, 2-[5-[(3R)-3-amino-1,1,4-trioxo-5-[[4-[6-(trifluoromethyl)-3-pyridyl]phenyl]methyl]-2,3-dihydro-1λ^6,5-benzothiazepin-7-yl]-1,3,4-oxadiazol-2-yl]-2-methyl-propanenitrile]",> 62500,1130,79,1060
Cc1nc(-c2ccc(CN3C(=O)[C@@H](N)CS(=O)(=O)c4ccc(-c5nnc(C(C)(C)C#N)o5)cc43)cc2)ccc1C(F)(F)F [Example 114],> 60000,3720,78,7420
"CC(C)(C#N)c1nnc(-c2ccc3c(c2)N(Cc2ccc(-c4cnn(C(F)(F)F)c4)cc2)C(=O)[C@@H](N)CS3(=O)=O)o1 [Example 115, 2-[5-[(3R)-3-amino-1,1,4-trioxo-5-[[4-[1-(trifluoromethyl)pyrazol-4-yl]phenyl]methyl]-2,3-dihydro-1λ^6,5-benzothiazepin-7-yl]-1,3,4-oxadiazol-2-yl]-2-methyl-propanenitrile]",585,803,140,278
"CC(C)(C#N)c1nnc(-c2ccc3c(c2)N(Cc2ccc(-c4cc(C(F)(F)F)ccn4)cc2)C(=O)[C@@H](N)CS3(=O)=O)o1 [Example 116, 2-[5-[(3R)-3-amino-1,1,4-trioxo-5-[[4-[4-(trifluoromethyl)-2-pyridyl]phenyl]methyl]-2,3-dihydro-1λ^6,5-benzothiazepin-7-yl]-1,3,4-oxadiazol-2-yl]-2-methyl-propanenitrile]",> 62500,918,97,439

# Now from value to compound, other results behind:
IC50 [1] [nM],IC50 [2] [nM],Compound,Emax proliferation (% activation) (primary human T-cells),EC50 (primary human T-cells) [nM]
1140,1010,CC(C)(C#N)c1nnc(-c2ccc3c(c2)N(Cc2ccc(-c4ncc(OC(F)(F)F)cn4)cc2)C(=O)[C@@H](N)CS3(=O)=O)o1 [Example 117],136,174
16400,814,"CC(C)(C#N)c1nnc(-c2ccc3c(c2)N(Cc2ccc(-c4ccc(C5CC5)cn4)cc2)C(=O)[C@@H](N)CS3(=O)=O)o1 [Example 118, 2-[5-[(3R)-3-amino-5-[[4-(5-cyclopropyl-2-pyridyl)phenyl]methyl]-1,1,4-trioxo-2,3-dihydro-1λ^6,5-benzothiazepin-7-yl]-1,3,4-oxadiazol-2-yl]-2-methyl-propanenitrile]",144,1570
3450,1630,"CC(C)(C#N)c1nnc(-c2ccc3c(c2)N(Cc2ccc(-c4ccc(OC(F)(F)F)cc4)nc2)C(=O)[C@@H](N)CS3(=O)=O)o1 [Example 119, 2-[5-[(3R)-3-amino-1,1,4-trioxo-5-[[6-[4-(trifluoromethoxy)phenyl]-3-pyridyl]methyl]-2,3-dihydro-1λ^6,5-benzothiazepin-7-yl]-1,3,4-oxadiazol-2-yl]-2-methyl-propanenitrile]",119,809
13500,2020,"CC(C)(C#N)c1nnc(-c2ccc3c(c2)N(Cc2ccc(-n4nnc(C(F)(F)F)n4)cc2)C(=O)[C@@H](N)CS3(=O)=O)o1 [Example 120, 2-[5-[(3R)-3-amino-1,1,4-trioxo-5-[[4-[5-(trifluoromethyl)tetrazol-2-yl]phenyl]methyl]-2,3-dihydro-1λ^6,5-benzothiazepin-7-yl]-1,3,4-oxadiazol-2-yl]-2-methyl-propanenitrile]",205,1520
1860,893,"CC(C)(C#N)c1nnc(-c2ccc3c(c2)N(Cc2ccc(-c4nc(C(F)(F)F)co4)cc2)C(=O)[C@@H](N)CS3(=O)=O)o1 [Example 123, 2-[5-[(3R)-3-amino-1,1,4-trioxo-5-[[4-[4-(trifluoromethyl)oxazol-2-yl]phenyl]methyl]-2,3-dihydro-1λ^6,5-benzothiazepin-7-yl]-1,3,4-oxadiazol-2-yl]-2-methyl-propanenitrile]",103,860
3520,930,COc1ccc(-c2ccc(CN3C(=O)[C@@H](N)CS(=O)(=O)c4ccc(-c5nnc(C(C)(C)C#N)o5)cc43)cc2)nc1 [Example 125],127,2310
4380,541,"CC(C)(C#N)c1nnc(-c2ccc3c(c2)N(Cc2ccc(-c4cc(OC(F)(F)F)ccn4)cc2)C(=O)[C@@H](N)CS3(=O)=O)o1 [Example 126, 2-[5-[(3R)-3-amino-1,1,4-trioxo-5-[[4-[4-(trifluoromethoxy)-2-pyridyl]phenyl]methyl]-2,3-dihydro-1λ^6,5-benzothiazepin-7-yl]-1,3,4-oxadiazol-2-yl]-2-methyl-propanenitrile]",212,2490
> 60000,2450,"CC(C)(C#N)c1nnc(-c2ccc3c(c2)N(Cc2ccc(-c4ncc(C(F)(F)F)cn4)cc2)C(=O)[C@@H](N)CS3(=O)=O)o1 [Example 127, 2-[5-[(3R)-3-amino-1,1,4-trioxo-5-[[4-[5-(trifluoromethyl)pyrimidin-2-yl]phenyl]methyl]-2,3-dihydro-1λ^6,5-benzothiazepin-7-yl]-1,3,4-oxadiazol-2-yl]-2-methyl-propanenitrile]",130,1980
1680,948,"CC(C)(C#N)c1nnc(-c2ccc3c(c2)N(Cc2ccc(-c4ccc(OC(F)(F)C(F)(F)F)cn4)cc2)C(=O)[C@@H](N)CS3(=O)=O)o1 [Example 129, 2-[5-[(3R)-3-amino-1,1,4-trioxo-5-[[4-[5-(1,1,2,2,2-pentafluoroethoxy)-2-pyridyl]phenyl]methyl]-2,3-dihydro-1λ^6,5-benzothiazepin-7-yl]-1,3,4-oxadiazol-2-yl]-2-methyl-propanenitrile]",119,22.8
> 60000,12200,N[C@H]1CS(=O)(=O)c2ccc(-c3nnc(C4(C(F)F)CNC4)o3)cc2N(Cc2ccc(-c3ccc(C(F)(F)F)cc3)cc2)C1=O [Example 152],90,1440
